Assay results reported in paper PMC10850913 (Heliyon, 2024).
Where two headings read alike, the source gives them in different places.

Key:
HCT116 cells [1] = assay: Cellular apoptosis (Annexin V FITC/PI flow cytometry); assay type: cell-based; conditions: HCT116, IC50 dose
Method: HCT116 cell lines were seeded, cultured and subjected up to IC-50 dose of compound. Subsequent to treatment, cells underwent two washes with cold PBS. Resuspended cells were placed in 1X binding buffer at a concentration of 1x10^6 cells/ml, and the cells were divided into distinct groups, namely Unstained cells, Control group, Annexin only, PI only, and Treatment. Following the division into labelled tubes, Annexin V FITC and PI were introduced to their respective tubes. After vortexing and an incubation period of 15 min at room temperature, 1X Binding buffer was added to each tube. Subsequently, the samples were analyzed by a Flow Cytometer within 1 h.

erythrocytes = assay: Haemolysis study; assay type: cell-based, male albino rats; conditions: rat erythrocytes, 100 μg/ml
Method: For […] control identification, Triton X-100 treatment was employed. A 4 mL blood sample was drawn from male albino rats (220g) using a 23-gauge needle from the lateral saphenous vein of the animal (SPTM/2022/IAEC/18). The blood sample was then centrifuged at 1344×g for 10 min, and the plasma layer was carefully removed. The erythrocytes were washed three times with saline water and incubated with a 100 μg/mL concentration of the samples at 37 °C. Samples of 200 μL each were collected at 0, 1–10 h and centrifuged at 1344×g for 10 min.
During the incubation, hemoglobin transformed into oxyhemoglobin. The obtained erythrocytes were observed under a microscope, and absorbance readings were taken at 570 nm for different concentrations of samples. All test samples were analyzed in triplicate, and the results are expressed as mean ± SD (n = 3). The percentage of hemolysis can be calculated using the following equation.

[2] = Pharmacokinetics after intravenous administration; assay type: in vivo, male Albino Wistar rats; conditions: rats, 15 mg/kg intravenously
Method: In accordance with the ethical approval (SPTM/2022/IAEC/18), nine male Albino Wistar rats weighing between 200 and 250 g were divided into three groups (n = 3) for proper conduct of pharmacokinetic experiments.
Blood samples (500 μL) were collected from the rats' tail veins into heparinized tubes and cold centrifuged at 13,500 rpm for 10 min at 4 °C to separate plasma from blood. Subsequently, 100 μL of the separated plasma was mixed with 200 μL of acetonitrile, vortexed for 3 min to extract proteins, and cold centrifuged again at 13,500 rpm for 5 min at 4 °C.
The supernatant was then diluted with methanol, passed through a membrane filter, and subjected to analysis using a High-Performance Liquid Chromatography (HPLC) system. Isocratic elution was performed with a mobile phase consisting of a 20 mM ammonium acetate buffer and acetonitrile in a 60:40 ratio, at a flow rate of 1.0 mL/min, utilizing a C18 column.

HCT116 cells [3] = assay: Mitochondrial membrane potential estimation (JC-1 flow cytometry); assay type: cell-based; conditions: HCT-116, IC50 dose, 24 h
Method: After the incubation period, the medium was aspirated, and cells were harvested using trypsin EDTA. The harvested cells were collected in a 1.5 ml tube and subjected to a single wash with 500 μl of chilled PBS. Subsequently, the cell pellets were resuspended in 400 μl of JC1 staining buffer containing 2 μM JC-1 dye. The samples were then promptly acquired using a Flow Cytometer within a 1-h timeframe.

HCT116 cells [4] = assay: Cell cycle analysis (PI, flow cytometry); assay type: cell-based; conditions: HCT116, IC50 concentration, 24 h
Method: Following the incubation period, cells were harvested using trypsin and collected in a 1.5 ml tube. After a single wash with 500 μl of chilled PBS, approximately 1 x 10^6 cells were suspended in 100 μl of PBS. The cell suspension was gently vortexed to achieve a mono-dispersed cell suspension with minimal aggregation. Subsequently, the cells were fixed by transferring this suspension with a pipette into centrifuge tubes containing 900 μl of 70 % ethanol, placed on ice, and then incubated for a minimum of 2 h at 4 °C. The fixed cells could be stored in 70 % ethanol at 4 °C for several weeks.
After fixation, the cells were centrifuged, and the pellet was suspended in 500 μl of Propidium Iodide (PI) staining solution (0.1 % (v/v) Triton X-100, 10 μg/ml PI, and 100 μg/ml DNase-free RNaseA in PBS). This suspension was kept in the dark at room temperature for 30 min or at 37 °C for 10 min. The samples were then acquired on a flow cytometer.

[5] = In vitro drug release (dialysis tube) and kinetic models; assay type: physicochemical; conditions: PBS pH 5.5, 37 °C
Method: We utilized a dialysis tube diffusion system to characterize the in vitro release of drugs from the formulations. This system provides a controlled environment to study the rate and extent of drug release from the formulations, reflecting their potential drug delivery behaviour. […] Tube was inserted into 50 mL of PBS (pH 5.5) with both ends tightened. In order to provide the sink conditions, PBS quantifying to 0.5 mL was added. Formulated medium was heated up to 37 ± 0.5 °C and stirred continuously at speed of 200 rpm. At predefined intervals, a 5 mL sample was taken, and an equal volume of new medium was introduced to keep the final volume, or sink condition, throughout experiment. All test samples were analyzed in triplicate manner and results are expressed as mean ± SD (n = 3).
To elucidate the kinetics and mechanisms governing drug release, we employed regression analysis to fit the experimental drug release data to various mathematical models. This analysis yielded coefficient constants that shed light on the order of release and the underlying mechanisms involved. (See Supportive Information for further details).

[6] = test system: castration-resistant prostate cancer (CRPC); conditions: patients with CRPC; cited from earlier work
HCT116 cells [7] = assay: Wound healing (scratch) assay; assay type: cell-based; conditions: HCT-116, after 48 h, compared to control
Method: The following day, a scratch was made in the cell monolayer using a 200 μl tip, and the cells were subsequently treated with the specified concentration of the formulation. Photographs were taken at various time intervals ranging from 0 to 48 h.
The gap area resulting from the scratch was analyzed using Image J Software (NCBI) and was further presented in a graphical format to illustrate the changes over time.

platelets = assay: Platelet aggregation study; assay type: cell-based, rats; conditions: blood incubated 2 h, Leishman-stained slides
Method: A 1 mL blood sample was collected in heparinized tubes to prevent coagulation. […] The platelet aggregation was then examined both quantitatively and qualitatively. The qualitative analysis was conducted through microscopic examination of stained blood smears. Blood smears were prepared on clean glass slides after the 2-h incubation period. The slides were air-dried and subsequently stained with Leishman's stain for 5 min (Span Diagnostics, India). Following the staining, the slides were rinsed with distilled water, and a cover glass was placed on each slide for visualization under an optical microscope using an immersion objective. Images were captured using a digital camera.
As a control, whole blood incubated with an equivalent volume of PBS was used as the spontaneous control.

Tissue distribution = assay type: in vivo; conditions: male, albino Wistar, rat, intravenous, 15 mg/kg, rats, 8 h after administration
Method: To assess the distribution and concentration of a medication within the body following delivery, tissue distribution studies were conducted. Twelve male albino Wistar rats were divided into two groups, each comprising six rats, following the approved institutional protocol by the Committee for the Purpose of Control and Supervision of Experiments on Animals (CPCSEA) (Ref. No.: SPTM/2022/IAEC/18).
The medications evaluated for tissue distribution were ENZ and the formulation ENZ-PLGA-PSAR-TPGS NPs. After administering the doses for 8 h, the rats were euthanized. Tissue samples, including liver, heart, kidney, lungs, brain, colon, small intestine, stomach, and rectum muscle tissues, were collected. Brain endothelial cells were obtained using a stereotaxic apparatus (USA, Model No. 51500). The collected tissue samples were homogenized in a cold physiological solution and filtered after rinsing with saline water (0.9 percent sodium chloride).
Subsequently, the samples were analyzed using RP-UHPLC (Dionex Ultimate, 3000) to determine the distribution and concentration of the medications in various tissues.

HT-29 cell line = test system: HT-29 cell line; parameters: method as in PMID 31149165; conditions: 1000 μg/mL, MTT assay; cited from earlier work
[8] = cited from earlier work
[9] = male, Albino Wistar, rat, plasma, iv

- MRT [2, 9]: 5.34 ± 2.43 h
- Vd [2, 9]: 1.4 ± 0.00356 L
- clearance [2, 9]: 1.51 mL/min
- C [2]: 226.24 ± 31.2 ng/mL
- pattern of release [5]: poor
- platelet aggregation (platelets): no aggregation
- concentration at 8 h (Tissue distribution; brain, read-out: Concentration in Brain): 0.7 ± 0.1 ng/mL
- concentration at 8 h (Tissue distribution; colon, read-out: Concentration in Colon): 0.95 ± 0.5 ng/mL
- concentration at 8 h (Tissue distribution; heart, read-out: Concentration in Heart): 0.8 ± 1.1 ng/mL
- concentration at 8 h (Tissue distribution; kidney, read-out: Concentration in Kidney): 0.57 ± 0.21 ng/mL
- concentration at 8 h (Tissue distribution; liver, read-out: Concentration in Liver): 1.2 ± 0.13 ng/mL
- concentration at 8 h (Tissue distribution; lungs, read-out: Concentration in Lungs): 0.5 ± 0.102 ng/mL
- concentration at 8 h (Tissue distribution; rectum, read-out: Concentration in Rectum): 3.07 ± 0.4 ng/mL
- concentration at 8 h (Tissue distribution; spleen, read-out: Concentration in Spleen): 0.3 ± 0.1 ng/mL
- concentration at 8 h (Tissue distribution; stomach, read-out: Concentration in Stomach): 0.21 ± 0.12 ng/mL
SMILES: CNC(=O)c1ccc(N2C(=S)N(c3ccc(C#N)c(C(F)(F)F)c3)C(=O)C2(C)C)cc1F [ENZ, Enzalutamide]
- early apoptosis (lower right quadrant) (HCT116 cells [1]): 2.7%
- late apoptosis (upper right quadrant) (HCT116 cells [1]): 10.1%
- live cells (lower left quadrant) (HCT116 cells [1]): 72.6%
- lysis of RBCs (microscopy) (erythrocytes): no occurrence of eruption or lysis of the RBCs
- High MMP cells (HCT116 cells [3]): 3.5%
- live cells in MMP assay (HCT116 cells [3]): 52.7%
- low MMP cells (HCT116 cells [3]): 41.7%
- cells in G1 phase (HCT116 cells [4]): 49.6%
- cells in G2 (G2/M) phase (HCT116 cells [4]): 14.5%
- extension of survival [6]: 4.8 months
- inhibition of wound area (HCT116 cells [7]): inhibited the wound area
- cell viability (HT-29 cell line): significant decrease
- pKa [8]: 4.16
